Laboratory results taken from patent US9155699B2, “Pulmonary delivery for levodopa” (Civitas Therapeutics, Inc., priority 2002, dated 2015).

Key:
in vivo = settings: plasma
[1] = 120 minutes after administration

In the case of `N[C@@H](Cc1ccc(O)c(O)c1)C(=O)O` [L-Dopa, Levodopa], the concentration at 2 min (in vivo; inhaled) is reported as 5000 ng/mL, the concentration at 2 min (in vivo; po) is reported as 1000 ng/mL and the “plasma level, methods of the invention compared to oral administration” value [1] is reported as “twice as high”.
